22 molecules from ChEMBL document CHEMBL5380800, “Discovery of Small-Molecule Autophagy Inhibitors by Disrupting the Protein-Protein Interactions Involving Autophagy-Related 5” (J Med Chem, 2023) can be followed below.

Active and inactive are the calls of the source. The rule behind the calls is not given here.

By IC50 is commonly meant the midpoint of a concentration-inhibition curve. What is called inhibition is the drop in the measured response relative to a control, in per cent.

One series relates to U-937. Nature of the series: Downregulation of LC3-II protein level in human U-937 cells at 5 to 40 uM incubated for 6 hrs in presence of rapamycin/chloroquine by Western blot analysis. The series is classed as functional, cell-based. To be noted: dose 5-40 µM. Background: A western blot detects proteins with antibodies after separation by electrophoresis.
The nature of series [1]: Inhibition of ATG5-TECAIR (unknown origin) protein protein interaction expressed in Escherichia coli BL21 (DE3) by HTRF method. Also on record: species or system Homo sapiens. Background: Time-resolved FRET reads energy transfer from a long-lived donor to a nearby acceptor.
Series [2] concerns COS-7. Kind of series: Inhibition of autophagy in African green monkey COS-7 cells assessed as effect on LC3 level by flow cytometry analysis. It counts as toxicity, cell-based. To be noted: chlorocebus aethiops, cos-7, 40 µM. In general terms: A flow cytometer gives signals particle by particle.
For another series, the system named is THP-1. Nature of the series: Downregulation of LC3-II protein level in human THP-1 cells at 5 to 40 uM incubated for 6 hrs in presence of rapamycin/chloroquine by Western blot analysis. The series is classed as functional, cell-based. To be noted: dose 5-40 µM.
Series [3] is described as follows: Inhibition of ATG5-ATG16L1 (unknown origin) protein protein interaction expressed in Escherichia coli BL21 (DE3) by HTRF method. Also on record: species or system Homo sapiens.
Series [4] relates to COS-7. Kind of series: Inhibition of autophagy in African green monkey COS-7 cells at 20 uM by flow cytometry analysis relative to control. It counts as functional. To be noted: Chlorocebus aethiops.
Series [5] deals with COS-7. Nature of the series: Downregulation of LC3-II protein level in African green monkey COS-7 cells at 1.25 to 20 uM incubated for 6 hrs by Western blot analysis. It counts as functional, cell-based. To be noted: Chlorocebus aethiops, dose 1.25-20 µM.
Series [6] concerns COS-7. Kind of series: Inhibition of autophagy in African green monkey COS-7 cells assessed as effect on LC3 level at upto 40 uM by flow cytometry analysis. The series is classed as functional, cell-based. To be noted: Chlorocebus aethiops.

Regarding `O=C(O)c1ccc(N2C(=O)/C(=C/c3ccc(-c4ccc([N+](=O)[O-])cc4)o3)C=C2c2ccccc2)cc1`, the result in the series on U-937, in the series on THP-1 and with COS-7 [5] was Active. In addition, the values for the 50% inhibitory concentration (IC50) in series [1] (read-out: IC50) and in series [3] (read-out: IC50) were 1.7 µM and 1.1 µM, respectively. For the same molecule, the “inhibition (INH)” value in the series on COS-7 [2] is “Dose-Dependent Effect”. Moreover, in the series on COS-7 [4], the inhibition at 20 µM came out at 7.16%.

On to `NC(=O)c1cccc(-c2ccc(/C=C3\C=C(c4ccccc4)N(Cc4ccc(C(=O)O)cc4)C3=O)o2)c1`, for which the results for the half-inhibitory concentration (IC50) in series [1] (read-out: IC50) and in series [3] were over 33 µM and “Not Active”, respectively. The molecule also registered an inhibition at 20 µM with COS-7 [4] of 8.3%.

Regarding `CC(=O)c1ccc(-c2ccc(/C=C3\C=C(c4ccccc4)N(Cc4ccc(C(=O)O)cc4)C3=O)o2)cc1`, the results for the IC50 in series [1] (read-out: IC50) and in series [3] (read-out: IC50) were 16.3 µM and 26.9 µM, respectively. In the series on COS-7 [4], this molecule had an inhibition at 20 µM of 14.6%.

Regarding `O=C(O)c1ccc(CN2C(=O)/C(=C/c3ccc(-c4cccc([N+](=O)[O-])c4)o3)C=C2c2ccccc2)cc1`, the results for the IC50 in series [1] (read-out: IC50) and in series [3] (read-out: IC50) were 10.5 µM and 6.14 µM, respectively. For the same molecule, in the series on COS-7 [4], testing at 20 µM gave an inhibition of 36%.

Turning to `O=C(O)c1ccc(CN2C(=O)/C(=C/c3ccc(-c4ccccc4)o3)C=C2c2ccccc2)cc1`, the IC50 in series [1] (read-out: IC50) and in series [3] (read-out: IC50) was over 33 µM each time. Further, in the series with COS-7 [4], the inhibition at 20 µM was 20.6%.

As for `COC(=O)CCCCN1C(=O)/C(=C/c2ccc(-c3ccc([N+](=O)[O-])cc3)o2)C=C1c1ccccc1`, the IC50 entry in series [1] and in series [3] was “Not Active” throughout. Also, the inhibition at 20 µM in the series with COS-7 [4] turned out to be 16.6%.

With `O=C(O)c1ccc(N2C(=O)/C(=C/c3ccc(-c4ccc(O)cc4)o3)C=C2c2ccccc2)cc1`, the IC50 in series [1] (read-out: IC50) and in series [3] (read-out: IC50) was over 33 µM in each case. At 20 µM the inhibition with COS-7 [4] was 97.1%.

With `O=C(O)CCN1C(=O)/C(=C/c2ccc(-c3ccc([N+](=O)[O-])cc3)o2)C=C1c1ccccc1`, the IC50 in series [1] (read-out: IC50) was 17.2 µM; in series [3] (read-out: IC50), over 100 µM. The inhibition at 20 µM in the series with COS-7 [4] worked out at 21.4%.

Regarding `Cn1cnc(N)c2ncnc1-2`, the inhibition result in the series with COS-7 [6] is “inactive”.

For `O=C(O)c1cccc(CN2C(=O)/C(=C/c3ccc(-c4ccc([N+](=O)[O-])cc4)o3)C=C2c2ccccc2)c1`, the concentration for half-maximal inhibition (IC50) in series [1] (read-out: IC50) is 21.3 µM; in series [3] (read-out: IC50), over 33 µM. For the same molecule, the inhibition at 20 µM in the series on COS-7 [4] is 8.1%.

Turning to `O=C1/C(=C/c2ccc(-c3ccc([N+](=O)[O-])cc3)o2)C=C(c2ccccc2)N1Cc1ccccc1`, the half-inhibitory concentration (IC50) result in series [1] and in series [3] was “Not Active” each time. Moreover, the inhibition at 20 µM in the series with COS-7 [4] was found to be 78.7%.

As to `COC(=O)CCN1C(=O)/C(=C/c2ccc(-c3ccc([N+](=O)[O-])cc3)o2)C=C1c1ccccc1`, the IC50 result in series [1] and in series [3] was “Not Active” throughout. This molecule displayed an inhibition at 20 µM with COS-7 [4] of 77.1%.

With `O=C(O)CN1C(=O)/C(=C/c2ccc(-c3ccc([N+](=O)[O-])cc3)o2)C=C1c1ccccc1`, the IC50 was 31.2 µM in series [1] (read-out: IC50) and “Not Active” in series [3]. The molecule also gave an inhibition at 20 µM in the series with COS-7 [4] of 3.29%.

Take `O=C(O)CCCN1C(=O)/C(=C/c2ccc(-c3ccc([N+](=O)[O-])cc3)o2)C=C1c1ccccc1`: the concentration for half-maximal inhibition (IC50) in series [1] (read-out: IC50) was 20.8 µM; in series [3] it was “Not Active”. 20 µM produced 5.3% inhibition in the series with COS-7 [4].

Consider `CC(=O)Nc1ccc(-c2ccc(/C=C3\C=C(c4ccccc4)N(Cc4ccc(C(=O)O)cc4)C3=O)o2)cc1`, for which the half-maximal inhibitory concentration (IC50) in series [1] (read-out: IC50) is 12 µM; in series [3] (read-out: IC50), 12.8 µM. Also, in the series on COS-7 [4], the inhibition at 20 µM came out at 5.02%.

For `O=C(O)c1ccc(N2C(=O)/C(=C/c3ccc(-c4cccnc4)s3)C=C2c2ccccc2)cc1`, the IC50 in series [1] (read-out: IC50) was over 33 µM; in series [3], “Not Active”. This molecule also gave an inhibition at 20 µM in the series with COS-7 [4] of 97.3%.

In the case of `CCN(CCO)CCCC(C)Nc1ccnc2cc(Cl)ccc12` (stereo unspecified), in the series with COS-7 [6], the inhibition result is “inactive”.

On to `N#Cc1ccc(-c2ccc(/C=C3\C=C(c4ccccc4)N(c4ccc(C(=O)O)cc4)C3=O)s2)cc1`, for which the IC50 entry in series [1] and in series [3] was “Not Active” in each case. Moreover, testing at 20 µM in the series on COS-7 [4] gave an inhibition of 93.9%.

`O=C(O)c1ccc(N2C(=O)/C(=C/c3ccc(-c4cc(F)c(F)c(F)c4)s3)C=C2c2ccccc2)cc1`: the IC50 in series [1] (read-out: IC50) is 22 µM; in series [3] (read-out: IC50), 12 µM. Further, the inhibition at 20 µM in the series with COS-7 [4] stood at 97.6%.

Consider `O=C(O)c1ccc(N2C(=O)/C(=C/c3ccc(-c4ccc([N+](=O)[O-])cc4)s3)C=C2c2ccccc2)cc1`, for which the figures for the IC50 in series [1] (read-out: IC50) and in series [3] (read-out: IC50) were 30 µM and 18 µM, respectively. Further, the inhibition at 20 µM with COS-7 [4] was determined as 90.9%.

On to `O=C1/C(=C/c2ccc(-c3ccc([N+](=O)[O-])cc3)o2)C=C(c2ccccc2)N1Cc1ccc(C(F)(F)F)cc1`, for which the IC50 entry in series [1] and in series [3] was “Not Active” in each case. Further, in the series with COS-7 [4], the inhibition at 20 µM was 87.7%.

With `CC(=O)Nc1cccc(-c2ccc(/C=C3\C=C(c4ccccc4)N(Cc4ccc(C(=O)O)cc4)C3=O)o2)c1`, the half-maximal inhibitory concentration (IC50) result in series [1] and in series [3] was “Not Active” each time. In addition, 20 µM produced 20% inhibition with COS-7 [4].
